Here are results for five compounds from patent publication US20230416168A1 (EUROCHEM ANTWERPEN, priority 2020, published 2023).

The structures appear in SMILES notation. Read-outs that look alike come from different tables or passages of the source.

One test has as its system Nitrosomonas europaea. Description: Nitrification inhibition assay with Nitrosomonas europaea (nitrite level after 24 h). In kind it is cell-based. The conditions noted are these: for IC50 / activity at 100 µM: Nitrosomonas europaea; for IC50: 8-point dose response, 2 to 100 μM, read-out: IC50; for activity at 100 µM: tested concentration 100 μM, 24 h, normalized to DMSO (100%) and 100 μM DMP (0%), read-out: Nitrification (%) at tested concentration (0 = maximum activity). In short, it runs like this:
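Fivefold-concentrated N. europaea culture with ammonium incubated 24 h at 28 °C, shaken, with compound (single-point screen at 50 μM final; dose–response 2–100 μM, 8 points, 1.75-fold steps). Nitrite measured by Griess reagent at 540 nm, normalised per plate to 1% DMSO and 100 μM DMP controls; IC50 from logistic fit.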

The next test concerns Moorslede soil. Put plainly: In soil nitrification inhibition assay, Moorslede soil. The note with it: for inhibition at 50 µM / inhibition at 5 µM / inhibition at 20 µM: soil. Here is the method: Top layer (0 to 10 cm) soil samples were collected from different fields in Belgium (Merelbeke and Moorslede). Vegetation on the field trial was removed and samples were taken from different plots. All soil samples were mixed and sieved (mesh size 2.8 mm) to filter large debris and homogenize soil. The soil was stored at 5° C. in plastic containers covered with Saran foil to prevent changes in microbial community composition and to maintain the original soil water content.
Soil water content was determined by drying 20 g soil for 48 h in a 60° C. oven and measuring weight before and after drying. Based on the soil water content (±20%), compound solutions were prepared so that addition of 200 μl compound and 200 μl NH4Cl solution would result in a final compound concentration of 50 μM and a final NH4^+ concentration of 10 mM. Per treatment, 5 small pots were filled with 20 g soil. Next, the soil was treated first with the respective compound solution and then with the NH4Cl solution. Per tray, positive (50 μM DMP) and negative controls (DMSO) were included. Pots were incubated at 21° C. (6 a.m. to 10 p.m. light) for 7 days. Demineralized water was added to the soil every 2 to 3 days to a soil weight of 20 g. In the end, each sample of 20 g soil was dissolved in 100 ml 1M KCl and shaken for 1 hour, followed by filtration through Whatmann® paper. The filtrate was used to measure pH, NH4^+ and NO3− concentrations.
A set of examples was tested in the same conditions (Moorslede soil, 3 days of incubation) at a concentration of 50 μM.
Another set of examples was tested in different concentrations in Moorslede soil as well, and were sampled after 5 days.
The effect of 3H-1,3-thiazole-2-thione was tested in soil in accordance with the test described above in section 3.3.

The mark [1] stands for this setting: 72 h, 3 days, read-out: % Nitrification inhibition in soil (3 days of incubation, Moorslede soil) at 50 μM.
The mark [2] stands for this setting: 120 h, 5 days, read-out: % Nitrification inhibition in soil (5 days of incubation, Moorslede soil) at indicated concentration.
Where [3] appears, read: 120 h, 20 μM, 5 days, read-out: % Nitrification inhibition in soil (5 days of incubation, Moorslede soil) at indicated concentration.

Regarding `CN(Cc1c(Cl)nc2sccn12)CN1CCSC1=S` [Example 1, 3-[[(6-chloroimidazo[2,1-b][1,3]thiazol-5-yl)methyl-methylamino]methyl]-1,3-thiazolidine-2-thione], in the test with Nitrosomonas europaea, the “nitrification inhibition, in words” value is listed as “strongly inhibited nitrification”; the IC50 is below 2 µM; the activity at 100 µM was 0%.
In the case of `CN(Cc1nc2ccccc2s1)CN1CCOC1=S` [Example 5, 3-[[1,3-benzothiazol-2-ylmethyl(methyl)amino]methyl]-1,3-oxazolidine-2-thione], in the test on Nitrosomonas europaea, the “nitrification inhibition, in words” value was “strong nitrification inhibition”; the IC50 was 11 µM; the activity at 100 µM amounted to 0%.
As to `S=C1NCCO1` [Example 7], in the test on Nitrosomonas europaea, the IC50 is below 6 µM and the activity at 100 µM came out at 0%. In addition, the inhibition at 50 µM in the test with Moorslede soil (setting [1]) is 100%. In the test with Moorslede soil (setting [2]), the inhibition at 5 µM was 8% and the inhibition at 50 µM was 38%. Further, the inhibition at 20 µM in the test with Moorslede soil (setting [3]) amounted to 32%.
Regarding `S=c1[nH]ccs1` [Example 24, 3H-1,3-thiazole-2-thione], the “nitrification inhibition, in words” value in the test with Nitrosomonas europaea is recorded as “nearly completely inhibits nitrification”. In addition, the “Average nitrification [%] in Nitrosomonas europaea” value (“Average nitrification [%]” for short) is on record as 79% with Nitrosomonas europaea (2 μM); 78% in the test on Nitrosomonas europaea (3.5 μM); 76% with Nitrosomonas europaea (6 μM); 74% in the test on Nitrosomonas europaea (11 μM); 60% with Nitrosomonas europaea (19 μM); 43% in the test with Nitrosomonas europaea (33 μM). In addition, the “Average nitrification [%]” value in the test with Nitrosomonas europaea (57 μM) turned out to be 20%; with Nitrosomonas europaea (100 μM), 1%. Moreover, the IC50 with Nitrosomonas europaea was determined as 13 µM. Further, the activity at 100 µM with Nitrosomonas europaea was 1%. The “nitrification inhibition in soil, in words” value with Moorslede soil (20 μM, 5 days) was “effectively inhibits nitrification in soil”. The inhibition at 50 µM in the test on Moorslede soil (setting [1]) came out at 40%. The inhibition at 20 µM with Moorslede soil (120 h, 20 μM, 5 days, read-out: Average % nitrification inhibition in soil (5 days of incubation, Moorslede soil) at 20 μM) is 14%.
In the case of `CSc1nccs1` [Example 25, 2-(methylsulfanyI)-1,3-thiazole], the “Average nitrification [%]” value in the test on Nitrosomonas europaea (2 μM) was found to be 85%; with Nitrosomonas europaea (3.5 μM) it was 76%; in the test with Nitrosomonas europaea (6 μM) it was 73%; with Nitrosomonas europaea (11 μM), 58%; in the test on Nitrosomonas europaea (19 μM), 50%; in the test with Nitrosomonas europaea (33 μM) it was 32%. Moreover, the entries for the “Average nitrification [%]” value with Nitrosomonas europaea (57 μM) and with Nitrosomonas europaea (100 μM) were 20% and 2%, respectively. Also, the half-inhibitory concentration (IC50) with Nitrosomonas europaea was determined as 12 µM. Moreover, in the test on Nitrosomonas europaea, the activity at 100 µM came to 2%. In addition, the values for the inhibition at 50 µM with Moorslede soil (setting [1]) and in the test on Moorslede soil (setting [2]) were 73% and 30%, respectively. Also, in the test on Moorslede soil (setting [2]), the inhibition at 5 µM stood at 3%. Moreover, in the test with Moorslede soil (setting [3]), the inhibition at 20 µM was found to be 14%.
